Measurements published in patent publication US11542255B2, “Sulfonylureas and sulfonylthioureas as NLRP3 inhibitors” (Inflazome Limited, priority 2017, dated 2023).
Counter-ions that a name gives are not always drawn.

Key:
[1] = PK protocol, intravenous administration; assay type: in vivo, male Sprague Dawley rats; conditions: male, Sprague Dawley, rat, plasma, dose (mg/kg); for Vd: read-out: Vdss
Procedure: Pharmacokinetic parameters were determined in male Sprague Dawley rats (Charles River, UK, 250-350 g; or Vital River Laboratory Animal Technology Co Ltd, Beijing, China, 7-9 weeks old). Animals were individually housed during the study and maintained under a 12 h light/dark cycle. Animals had free access to food and water except that some orally dosed animals were food deprived overnight prior to the study.
For intravenous administration, compounds were formulated as a solution in water or […] in 2 mL/kg dosing volume and administered via tail vein. For oral administration, compounds were formulated as a solution in water or DMSO:water [10:90] in 5 mL/kg dosing volume and administered orally.
Serial blood samples (about 120-300 μL) were taken from each animal at each of 8 time-points post dose (0.083, 0.25, 0.5, 1, 2, 4, 8 and 24 h) or at each of 12 time-points post dose (0.03, 0.1, 0.17, 0.25, 0.5, 1, 2, 4, 6, 8, 12 and 24 h) or pre-dose and at each of 9 time-points post dose (0.25, 0.5, 1, 2, 4, 6, 8, 12 and 24 h). Samples were held on ice for no longer than 30 minutes before centrifugation (10,000 rpm (8,385 g) for 3 minutes; or 5,696 rpm (3,0009 for 15 minutes) for plasma generation. Plasma was frozen on dry ice prior to boanalysis. PK parameters were generated from LC-MS/MS data using Dotmatics or Phoenix WinNonlin 6.3 software.

NLRP3 [2] = biological target: T1, NLRP3 (Homo sapiens, UniProt Q96P20); assay: THP-1 cells pyroptosis assay (LPS + nigericin, resazurin readout); assay type: cell-based; parameters: Seed THP-1 cells (25,000 cells/well) containing 1.0 μg/ml LPS in 40 μl of RPMI medium; host or cells: THP-1 cells; conditions: NLRP3 inhibitory activity, 1.0 μg/ml LPS, 5 μM nigericin
T1 sequence (Q96P20 whole entry): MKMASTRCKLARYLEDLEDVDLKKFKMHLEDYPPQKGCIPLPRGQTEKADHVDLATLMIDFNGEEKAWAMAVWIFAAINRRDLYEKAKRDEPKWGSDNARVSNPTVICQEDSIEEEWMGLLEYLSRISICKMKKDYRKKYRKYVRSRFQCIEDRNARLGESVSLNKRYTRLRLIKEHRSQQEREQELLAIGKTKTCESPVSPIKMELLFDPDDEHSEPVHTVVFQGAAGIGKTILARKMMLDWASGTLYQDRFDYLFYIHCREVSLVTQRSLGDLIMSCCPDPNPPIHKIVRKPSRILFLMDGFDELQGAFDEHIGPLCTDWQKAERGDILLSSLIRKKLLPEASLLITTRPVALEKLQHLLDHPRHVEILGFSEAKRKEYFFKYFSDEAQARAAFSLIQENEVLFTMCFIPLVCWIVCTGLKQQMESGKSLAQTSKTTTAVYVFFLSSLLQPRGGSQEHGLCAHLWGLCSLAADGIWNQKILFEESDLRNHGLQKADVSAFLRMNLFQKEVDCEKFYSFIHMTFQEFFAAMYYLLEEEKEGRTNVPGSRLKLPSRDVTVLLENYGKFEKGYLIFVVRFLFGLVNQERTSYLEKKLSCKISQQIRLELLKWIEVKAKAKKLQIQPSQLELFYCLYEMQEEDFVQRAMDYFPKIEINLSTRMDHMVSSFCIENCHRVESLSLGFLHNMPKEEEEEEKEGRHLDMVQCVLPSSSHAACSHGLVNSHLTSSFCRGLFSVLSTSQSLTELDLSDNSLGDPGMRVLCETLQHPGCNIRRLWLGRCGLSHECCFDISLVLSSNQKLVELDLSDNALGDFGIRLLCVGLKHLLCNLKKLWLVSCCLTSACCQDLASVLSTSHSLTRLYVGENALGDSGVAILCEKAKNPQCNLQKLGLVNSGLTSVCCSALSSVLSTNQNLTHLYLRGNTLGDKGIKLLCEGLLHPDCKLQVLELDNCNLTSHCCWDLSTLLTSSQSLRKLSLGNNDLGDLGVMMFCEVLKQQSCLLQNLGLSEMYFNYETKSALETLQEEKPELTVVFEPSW
In short: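 LPS-primed (1 μg/ml) THP-1 cells, 25,000/well in serum-free RPMI, given compound (8-point half-log, 10 μM top; 0.1% DMSO) for 3 h at 37 °C, then nigericin 5 μM for 1 h. Viability by resazurin (100 μM, 1-2 h), Ex 560/Em 590 nm; IC50 from 4-parameter variable-slope fit.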

NLRP3 [3] = biological target: T1, NLRP3; assay: Human whole blood IL1β release assay (LPS + nigericin, AlphaLisa IL-1β); assay type: cell-based; parameters: Human whole blood in Li-heparin tubes was obtained from healthy donors from a volunteer donor panel; from tissue; host or cells: human whole blood from healthy donors; conditions: NLRP3 inhibitory activity, 1 μg/ml LPS, 10 μM nigericin, IL-1β release, read-out: HWB IC50
In short: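 Donor human whole blood (Li-heparin) was primed with 1 μg/mL LPS while incubated with compound (8-point half-log, 10 μM top, 0.1% DMSO) for 3 h at 37° C., then stimulated with 10 μM nigericin for 1 h. Supernatant IL-1β measured by AlphaLISA; IC50 from 4-parameter nonlinear fit.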

Row | SMILES | AUC [1] | clearance [1] | half-life [1] | Vd [1] | IC50 (NLRP3 [2]) | IC50 (NLRP3 [3])
1 | CC(c1cc(S(=O)(=O)NC(=O)Nc2c3c(cc4c2CCC4)CCC3)nn1C)N1CCC1 (single isomer, unassigned; enantiomer 2) [Example 27, 5-(1-(Azetidin-1-yl)ethyl)-N-((1,2,3,5,6,7-hexahydro-s-indacen-4-yl)carbamoyl)-1-methyl-1H-pyrazole-3-sulfonamide, Sodium Salt (Enantiomer 2)] | 3900 ng·h/mL | 4.3 mL/min/kg | 1.1 h | 0.33 L/kg | 40 to 160 nM | < 400 nM
2 | CN(C)CCn1nc(S(=O)(=O)NC(=O)Nc2c3c(cc4c2CCC4)CCC3)cc1CN(C)C [Example 3, 1-(2-(Dimethylamino)ethyl)-5-((dimethylamino)methyl)-N-((1,2,3,5,6,7-hexahydro-s-indacen-4-yl)carbamoyl)-1H-pyrazole-3-sulfonamide] | 1130 ng·h/mL | 37 mL/min/kg | 1.3 h | 1.32 L/kg | < 40 nM | < 400 nM
3 | CCC(c1cc(S(=O)(=O)NC(=O)Nc2c3c(cc4c2CCC4)CCC3)nn1C1CC1)N(C)C (stereo not drawn) [Example 24, 1-Cyclopropyl-5-(1-(dimethylamino)propyl)-N-((1,2,3,5,6,7-hexahydro-s-indacen-4-yl)carbamoyl)-1H-pyrazole-3-sulfonamide] | 1280 ng·h/mL | 13 mL/min/kg | 1 h | 0.84 L/kg | < 40 nM | < 400 nM
4 | CCC(c1cc(S(=O)(=O)NC(=O)Nc2c3c(cc4c2CCC4)CCC3)nn1C)N(C)C (single isomer, unassigned; enantiomer 2) [Example 72, 5-(1-(Dimethylamino)propyl)-N-((1,2,3,5,6,7-hexahydro-s-indacen-4-yl)carbamoyl)-1-methyl-1H-pyrazole-3-sulfonamide, Enantiomer 2] | 2780 ng·h/mL | 8.5 mL/min/kg | 2.4 h | 0.51 L/kg | < 40 nM | < 400 nM
5 | CCn1nc(S(=O)(=O)NC(=O)Nc2c3c(cc4c2CCC4)CCC3)cc1CN(C)C [Example 52, 5-((Dimethylamino)methyl)-1-ethyl-N-((1,2,3,5,6,7-hexahydro-s-indacen-4-yl)carbamoyl)-1H-pyrazole-3-sulfonamide] | 7970 ng·h/mL | 3.5 mL/min/kg | 1.5 h | 0.39 L/kg | < 40 nM | < 400 nM
6 | CCn1nc(S(=O)(=O)NC(=O)Nc2c3c(cc4c2CCC4)CCC3)cc1CN1CCC1 [Example 49, 5-(Azetidin-1-ylmethyl)-1-ethyl-N-((1,2,3,5,6,7-hexahydro-s-indacen-4-yl)carbamoyl)-1H-pyrazole-3-sulfonamide] | 6630 ng·h/mL | 2.7 mL/min/kg | 2.2 h | 0.34 L/kg | 40 to 160 nM | < 400 nM
7 | CC(c1cc(S(=O)(=O)NC(=O)Nc2c3c(cc4c2CCC4)CCC3)nn1C(C)C)N(C)C (stereo not drawn) [Example 73, 5-(1-(Dimethylamino)ethyl)-N-((1,2,3,5,6,7-hexahydro-s-indacen-4-yl)carbamoyl)-1-isopropyl-1H-pyrazole-3-sulfonamide] | 4250 ng·h/mL | 4.3 mL/min/kg | 3.5 h | 0.51 L/kg | < 40 nM | < 400 nM
8 | O=C(Nc1c2c(cc3c1CCC3)CCC2)NS(=O)(=O)c1cc(CN2CCC2)n(C2CC2)n1 [Example 30, 5-(Azetidin-1-ylmethyl)-1-cyclopropyl-N-((1,2,3,5,6,7-hexahydro-s-indacen-4-yl)carbamoyl)-1H-pyrazole-3-sulfonamide] | 6210 ng·h/mL | 2.7 mL/min/kg | 2.8 h | 0.53 L/kg | 40 to 160 nM | 400 to 800 nM
9 | CCC(c1cc(S(=O)(=O)NC(=O)Nc2c3c(cc4c2CCC4)CCC3)nn1C(C)C)N(C)C (stereo not drawn) [Example 63, 5-(1-(Dimethylamino)propyl)-N-((1,2,3,5,6,7-hexahydro-s-indacen-4-yl)carbamoyl)-1-isopropyl-1H-pyrazole-3-sulfonamide] | 4010 ng·h/mL | 4.2 mL/min/kg | 0.8 h | 0.25 L/kg | < 40 nM | < 400 nM
10 | Cn1nc(S(=O)(=O)[N-]C(=O)Nc2c3c(cc4c2CCC4)CCC3)cc1C[N+](C)(C)C [Example 44, ((1,2,3,5,6,7-Hexahydro-s-indacen-4-yl)carbamoyl)((1-methyl-5-((trimethylammonio)methyl)-1H-pyrazol-3-yl)sulfonyl)amide] | 3120 ng·h/mL | 5.3 mL/min/kg | 1.2 h | 0.21 L/kg | 640 to 2560 nM | < 400 nM
11 | CC(c1cc(S(=O)(=O)NC(=O)Nc2c3c(cc4c2CCC4)CCC3)nn1C1CC1)N1CCC1 (stereo not drawn) [Example 25, 5-(˜(Azetidin-1-yl)ethyl)-1-cyclopropyl-N-((1,2,3,5,6,7-hexahydro-s-indacen-4-yl)carbamoyl)-1H-pyrazole-3-sulfonamide] | 3460 ng·h/mL | 10 mL/min/kg | 1 h | 0.58 L/kg | < 40 nM | < 400 nM
12 | CN(C)CCn1nc(S(=O)(=O)NC(=O)Nc2c3c(cc4c2CCC4)CCC3)cc1C(C)(C)O [Example 4, 1-(2-(Dimethylamino)ethyl)-N-((1,2,3,5,6,7-hexahydro-s-indacen-4-yl)carbamoyl)-5-(2-hydroxypropan-2-yl)-1H-pyrazole-3-sulfonamide] | 3780 ng·h/mL | 4.4 mL/min/kg | 1.6 h | 0.12 L/kg | 40 to 160 nM | 400 to 800 nM

Other lines, results leading:

Row | AUC [1] | clearance [1] | half-life [1] | Vd [1] | IC50 (NLRP3 [2]) | IC50 (NLRP3 [3]) | SMILES
13 | 4440 ng·h/mL | 3.8 mL/min/kg | 3.5 h | 0.38 L/kg | < 40 nM | < 400 nM | CC(c1cc(S(=O)(=O)NC(=O)Nc2c3c(cc4c2CCC4)CCC3)nn1C)N(C)C (stereo not drawn) [Example 77, 5-(1-(Dimethylamino)ethyl)-N-((1,2,3,5,6,7-hexahydro-s-indacen-4-yl)carbamoyl)-1-methyl-1H-pyrazole-3-sulfonamide]
14 | 4400 ng·h/mL | 3.8 mL/min/kg | 3.2 h | 0.48 L/kg | 160 to 640 nM | 800 to 1600 nM | Cn1nc(S(=O)(=O)NC(=O)Nc2c3c(cc4c2CCC4)CCC3)cc1CN1CCC1 [Example 86, 5-(Azetidin-1-ylmethyl)-N-((1,2,3,5,6,7-hexahydro-s-indacen-4-yl)carbamoyl)-1-methyl-1H-pyrazole-3-sulfonamide, Sodium Salt]
15 | 2490 ng·h/mL | 6.7 mL/min/kg | 1 h | 0.47 L/kg | 40 to 160 nM | 400 to 800 nM | CCN(C)Cc1cc(S(=O)(=O)NC(=O)Nc2c3c(cc4c2CCC4)CCC3)nn1C [Example 84, 5-((Ethyl(methyl)amino)methyl)-N-((1,2,3,5,6,7-hexahydro-s-indacen-4-yl)carbamoyl)-1-methyl-1H-pyrazole-3-sulfonamide]
16 | 1020 ng·h/mL | 16.3 mL/min/kg | 1.4 h | 1.4 L/kg | 160 to 640 nM | < 400 nM | CCN(C)Cc1cc(S(=O)(=O)NC(=O)Nc2c(C(C)C)cc(F)cc2C(C)C)nn1C [Example 89, 5-((Ethyl(methyl)amino)methyl)-N-((4-fluoro-2,6-diisopropylphenyl)carbamoyl)-1-methyl-1H-pyrazole-3-sulfonamide, sodium Salt]
17 | 1280 ng·h/mL | 13.1 mL/min/kg | 3.2 h | 2.19 L/kg | 160 to 640 nM | < 400 nM | CC(C)c1cc(F)cc(C(C)C)c1NC(=O)NS(=O)(=O)c1cc(CN(C)C)n(C)n1 [Example 92, 5-((Dimethylamino)methyl)-N-((4-fluoro-2,6-diisopropyl-phenyl)carbamoyl)-1-methyl-1H-pyrazole-3-sulfonamide, Sodium Salt]
18 | 2620 ng·h/mL | 6.9 mL/min/kg | 4.3 h | 1.03 L/kg | 160 to 640 nM | 400 to 800 nM | CC(C)N(C)Cc1cc(S(=O)(=O)NC(=O)Nc2c3c(cc4c2CCC4)CCC3)nn1C [Example 91, N-((1,2,3,5,6,7-Hexahydro-s-indacen-4-yl)carbamoyl)-5-((isopropyl(methyl)amino)methyl)-1-methyl-1H-pyrazole-3-sulfonamide]
